Experimental data: US11345694B2, “Antibacterial compounds” (DISCUVA LTD., priority 2017, dated 2022)
≈ marks a conversion by molar mass, not a printed value. Read-outs that look alike come from different tables or passages of the source.

Key:
[1] = test system: human hepatocarcinoma cell line ATCC HB-8065 (HepG2); assay: Human cell viability (CellTiter-Glo); type: cell-based; conditions: HepG2 cells, 24 h incubation, CellTiter-Glo luminescence, 0.2-100 μM, read-out: IC50 values against the HepG2 cell line
How it was run: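 Cytotoxicity was read as CellTiter-Glo luminescence after 24 h compound exposure at 37° C., 5% CO2. Final concentrations spanned 0.2-100 μM in two-fold steps, in 1% FBS MEM with 1% DMSO, on cells plated a day earlier at 20,000/well. IC50 came from 4-parameter logistic regression.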

[2] = test system: Staphylococcus aureus ATCC 35556 (SA); assay: MIC broth microdilution; type: cell-based; conditions: for MIC: ATCC35556
How it was run: (§1)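 Planktonic cells were tested by CLSI broth microdilution in cation-adjusted Müller-Hinton broth, with compounds two-fold serially diluted to final concentrations of 0.39-200 μM (DMSO at most 2% final). After 20-24 h at 37° C in ambient air, MIC was taken as the lowest concentration inhibiting growth.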

[3] = test system: Escherichia coli K12 (EC); assay: MIC broth microdilution; type: cell-based
How it was run: as §1

[4] = test system: Klebsiella pneumoniae ATCC 10031 (KP2); assay: MIC broth microdilution; type: cell-based; conditions: for MIC: ATCC10031
How it was run: (§2)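 Growth inhibition scored after 20-24 h at 37 °C in ambient air, in cation-adjusted Müller-Hinton broth; MIC is the lowest inhibitory concentration. Compounds serially diluted two-fold over 0.39-200 μM final (DMSO up to 2%), per CLSI microdilution guidelines.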

[5] = test system: Pseudomonas aeruginosa ATCC 33359 (PA); assay: MIC broth microdilution; type: cell-based; conditions: for MIC: ATCC33359
How it was run: as §1

[6] = test system: Acinetobacter baumannii ATCC 17978 (AB); assay: MIC broth microdilution; type: cell-based; conditions: for MIC: ATCC17978
How it was run: as §1

[7] = test system: K. pneumoniae H154300688 (KP9); assay: MIC broth microdilution; type: cell-based, Klebsiella pneumoniae; conditions: Klebsiella pneumoniae
How it was run: as §2

[8] = test system: K. pneumoniae NCTC 13438 (KP1); assay: MIC broth microdilution; type: cell-based, Klebsiella pneumoniae; conditions: for MIC: Klebsiella pneumoniae, NCTC13438
How it was run: as §2

[9] = test system: K. pneumoniae H154600588 (KP8); assay: MIC broth microdilution; type: cell-based, Klebsiella pneumoniae; conditions: Klebsiella pneumoniae
How it was run: as §2

[10] = test system: K. pneumoniae H154680676 (KP5); assay: MIC broth microdilution; type: cell-based, Klebsiella pneumoniae; conditions: Klebsiella pneumoniae
How it was run: as §2

[11] = test system: K. pneumoniae ATCC 700603 (KP3); assay: MIC broth microdilution; type: cell-based, Klebsiella pneumoniae; conditions: Klebsiella pneumoniae, ATCC700603
How it was run: as §2

[12] = test system: K. pneumoniae H154640784 (KP7); assay: MIC broth microdilution; type: cell-based, Klebsiella pneumoniae; conditions: Klebsiella pneumoniae
How it was run: as §2

[13] = test system: K. pneumoniae H154020667 (KP6); assay: MIC broth microdilution; type: cell-based, Klebsiella pneumoniae; conditions: Klebsiella pneumoniae
How it was run: as §2

[14] = test system: K. pneumoniae H151440671 (KP10); assay: MIC broth microdilution; type: cell-based, Klebsiella pneumoniae; conditions: Klebsiella pneumoniae
How it was run: as §2

[15] = test system: E. coli NCTC 13441 (UPEC); assay: MIC broth microdilution; type: cell-based, Escherichia coli; conditions: for MIC: Escherichia coli, NCTC13441
How it was run: as §1

Row | SMILES | IC50 ([1]; Homo sapiens) [µM] | MIC [2] [µM] | MIC [3] [µM] | MIC [4] [µM] | MIC [5] [µM] | MIC [6] [µM] | MIC [8] [µM] | MIC [15] [µM] | further results
1 | COc1ccc(-c2nc(N)[nH]c2-c2ccnc(C)c2)cc1Cl [Example 12, 4-(3-Chloro-4-methoxyphenyl)-5-(2-methylpyridin-4-yl)-1H-imidazol-2-amine] | > 100 | > 100 | 1 to 10 (≈ 0.315 to 3.15 µg/mL) | ≤ 1 | > 100 | > 100 | 10 to 100 (≈ 3.15 to 31.5 µg/mL) | 1 to 10 (≈ 0.315 to 3.15 µg/mL) | MIC [7]: 1 to 10 µM (≈ 0.315 to 3.15 µg/mL); MIC [9]: 10 to 100 µM (≈ 3.15 to 31.5 µg/mL); MIC [10]: 1 to 10 µM (≈ 0.315 to 3.15 µg/mL); MIC [11]: 10 to 100 µM (≈ 3.15 to 31.5 µg/mL); MIC [12]: 10 to 100 µM (≈ 3.15 to 31.5 µg/mL); MIC [13]: 1 to 10 µM (≈ 0.315 to 3.15 µg/mL); MIC [14]: 1 to 10 µM (≈ 0.315 to 3.15 µg/mL)
2 | Nc1cc(-c2[nH]c(N)nc2-c2ccc3c(c2)OCCO3)ccn1 [Example 24, 4-(2-Amino-4-(2,3-dihydrobenzo[b][1,4]dioxin-6-yl)-1H-imidazol-5-yl)pyridin-2-amine] | > 100 | > 100 | 1 to 10 (≈ 0.309 to 3.09 µg/mL) | ≤ 1 | > 100 | > 100 | 10 to 100 (≈ 3.09 to 30.9 µg/mL) | 1 to 10 (≈ 0.309 to 3.09 µg/mL) | MIC [7]: 10 to 100 µM (≈ 3.09 to 30.9 µg/mL); MIC [9]: 10 to 100 µM (≈ 3.09 to 30.9 µg/mL); MIC [10]: 1 to 10 µM (≈ 0.309 to 3.09 µg/mL); MIC [11]: 10 to 100 µM (≈ 3.09 to 30.9 µg/mL); MIC [12]: 10 to 100 µM (≈ 3.09 to 30.9 µg/mL); MIC [13]: 1 to 10 µM (≈ 0.309 to 3.09 µg/mL); MIC [14]: 1 to 10 µM (≈ 0.309 to 3.09 µg/mL)
3 | Cc1cc(-c2[nH]c(N)nc2-c2ccc3c(c2)OCO3)ccn1 [Example 26, 4-(Benzo[d][1,3]dioxol-5-yl)-5-(2-methylpyridin-4-yl)-1H-imidazol-2-amine] | > 100 | > 100 | ≤ 1 | ≤ 1 | > 100 | > 100 | 10 to 100 (≈ 2.94 to 29.4 µg/mL) | 1 to 10 (≈ 0.294 to 2.94 µg/mL) | MIC [7]: 1 to 10 µM (≈ 0.294 to 2.94 µg/mL); MIC [9]: 10 to 100 µM (≈ 2.94 to 29.4 µg/mL); MIC [10]: 1 to 10 µM (≈ 0.294 to 2.94 µg/mL); MIC [11]: 10 to 100 µM (≈ 2.94 to 29.4 µg/mL); MIC [12]: 10 to 100 µM (≈ 2.94 to 29.4 µg/mL); MIC [13]: 1 to 10 µM (≈ 0.294 to 2.94 µg/mL); MIC [14]: 1 to 10 µM (≈ 0.294 to 2.94 µg/mL)
4 | Cc1cc(-c2sc(N)nc2-c2ccc3c(c2)OCCO3)ccn1 [Example 80, 4-(2,3-Dihydrobenzo[b][1,4]dioxin-6-yl)-5-(2-methylpyridin-4-yl)thiazol-2-amine] | > 100 | > 100 | > 100 | 1 to 10 (≈ 0.325 to 3.25 µg/mL) | > 100 | > 100 | > 100 | > 100 | 
5 | Cc1cc(-c2[nH]c(=S)[nH]c2-c2ccc3c(c2)OCCO3)ccn1 [Example 81, 4-(2,3-Dihydrobenzo[b][1,4]dioxin-6-yl)-5-(2-methylpyridin-4-yl)-1,3-dihydro-2H-imidazole-2-thione] | > 100 | > 100 | 10 to 100 (≈ 3.25 to 32.5 µg/mL) | ≤ 1 | > 100 | > 100 | > 100 | 10 to 100 (≈ 3.25 to 32.5 µg/mL) | 
6 | Cc1cc(-c2[nH]c(Cl)nc2-c2ccc3c(c2)OCCO3)ccn1 [Example 83, 4-(2-Chloro-4-(2,3-dihydrobenzo[b][1,4]dioxin-6-yl)-1H-imidazol-5-yl)-2-methylpyridine] | > 100 | > 100 | 1 to 10 (≈ 0.328 to 3.28 µg/mL) | ≤ 1 | > 100 | > 100 | > 100 | 1 to 10 (≈ 0.328 to 3.28 µg/mL) | 
7 | CNC(=O)c1nc(-c2ccnc(C)c2)c(-c2ccc3c(c2)OCCO3)[nH]1 [Example 85, 5-(2,3-Dihydrobenzo[b][1,4]dioxin-6-yl)-N-methyl-4-(2-methylpyridin-4-yl)-1H-imidazole-2-carboxamide] | > 100 | > 100 | > 100 | 1 to 10 (≈ 0.35 to 3.5 µg/mL) | > 100 | > 100 | > 100 | > 100 | 
8 | Cc1cc(-c2[nH]c(C(=O)O)nc2-c2ccc3c(c2)OCCO3)ccn1 [Example 86, 4-(2,3-dihydrobenzo[b][1,4]dioxin-6-yl)-5-(2-methylpyridin-4-yl)-1H-imidazole-2-carboxylate] |  |  |  |  |  |  |  |  | IC50 [1]: > 100 µM; MIC SA [2]: D (a MIC of over 100 is assigned the letter D); MIC EC [3]: D (a MIC of over 100 is assigned the letter D); MIC KP2 [4]: B (a MIC of from 1 to 10 is assigned the letter B); MIC PA [5]: D (a MIC of over 100 is assigned the letter D); MIC AB [6]: D (a MIC of over 100 is assigned the letter D); MIC KP1 [8]: D (a MIC of over 100 is assigned the letter D); MIC UPEC [15]: D (a MIC of over 100 is assigned the letter D)
9 | Cc1cc(-c2[nH]c(CN)nc2-c2ccc3c(c2)OCCO3)ccn1 [Example 87, (4-(2,3-Dihydrobenzo[b][1,4]dioxin-6-yl)-5-(2-methylpyridin-4-yl)-1H-imidazol-2-yl)methanamine] | > 100 | > 100 | 1 to 10 (≈ 0.322 to 3.22 µg/mL) | ≤ 1 | > 100 | > 100 | 10 to 100 (≈ 3.22 to 32.2 µg/mL) | 1 to 10 (≈ 0.322 to 3.22 µg/mL) | 
10 | Cc1cc(-c2nc(N)[nH]c2-c2ccc3c(c2)N(CCN)C(=O)CO3)ccn1 [Example 89, 6-(2-Amino-4-(2-methylpyridin-4-yl)-1H-imidazol-5-yl)-4-(2-aminoethyl)-2H-benzo[b][1,4]oxazin-3(4H)-one] | > 100 | > 100 | 1 to 10 (≈ 0.364 to 3.64 µg/mL) | ≤ 1 | > 100 | > 100 | 10 to 100 (≈ 3.64 to 36.4 µg/mL) | 1 to 10 (≈ 0.364 to 3.64 µg/mL) | 
11 | Cc1cc(-c2nc(N)[nH]c2-c2ccc3c(c2)N(CCO)CCO3)ccn1 [Example 90, 2-(6-(2-Amino-4-(2-methylpyridin-4-yl)-1H-imidazol-5-yl)-2,3-dihydro-4H-benzo[b][1,4]oxazin-4-yl)ethan-1-ol] | > 100 | > 100 | 1 to 10 (≈ 0.351 to 3.51 µg/mL) | ≤ 1 | > 100 | > 100 | 1 to 10 (≈ 0.351 to 3.51 µg/mL) | ≤ 1 | 
12 | Cc1cc(-c2[nH]c(N)nc2-c2ccc3c(c2)N(CCN)CCO3)ccn1 [Example 91, 4-(4-(2-Aminoethyl)-3,4-dihydro-2H-benzo[b][1,4]oxazin-6-yl)-5-(2-methylpyridin-4-yl)-1H-imidazol-2-amine] | > 100 | > 100 | ≤ 1 | ≤ 1 | > 100 | > 100 | ≤ 1 | ≤ 1 | 
13 | Cc1cc(-c2[nH]c(N)nc2-c2ccc3c(c2)N(C2CCCC2)CCO3)ccn1 [Example 94, 4-(4-Cyclopentyl-3,4-dihydro-2H-benzo[b][1,4]oxazin-6-yl)-5-(2-methylpyridin-4-yl)-1H-imidazol-2-amine] | 25 to 100 | > 100 | ≤ 1 | ≤ 1 | > 100 | > 100 | 1 to 10 (≈ 0.375 to 3.75 µg/mL) | ≤ 1 | 
